Reference: patent publication US8282916B2, “Tumor therapy with replication competent sindbis viral vectors” (New York University, priority 2008, dated 2012)
“Also recorded” adds a separate entry of the source.

Tested on: ES-2/Fluc ovarian cancer cells
Assay: ES-2/Fluc ovarian cancer model in SCID mice: whole body bioluminescence after daily i.p. RD-Sindbis/tk and GCV
Assay type: in vivo
Description: In the example below, SCID mice were intraperitoneally implanted with ES2 human ovarian cancer cells. In order to track and monitor disease progression, the ES2 cells were genetically engineered to express a firefly luciferase gene for bioluminescent imaging. Therefore, the bioluminescent signal intensity is proportional to the tumor load in these animals (FIG. 3B). Tumor-bearing mice were either mock treated or received daily treatments with a conventional RD-Sindbis/HSVtk vector.
An ES-2/Fluc ovarian cancer model was used to test if the HSVtk suicide gene enhanced the therapeutic effects of Sindbis vectors. […] SCID mice were inoculated with ES-2/Fluc on day 0. Daily GDEPT treatments involving i.p. injections of RD-Sindbis/tk and GCV (25 mg/Kg of body weight) were started on day 3. The Sindbis/tk −GCV group (n=5) received Sindbis/tk treatments but no GCV. The Sindbis/tk +GCV group (n=5) received both Sindbis/tk and GCV treatments. The Control group (n=5) was neither treated with Sindbis/tk nor GCV. The Control +GCV group (n=5) received no Sindbis/tk but was treated with GCV. Disease progression was monitored and the whole body photon counts were determined using the IVIS® system on days 1, 3, 6, 8, 12 and 14.

SMILES: Nc1nc(O)c2ncn(COC(CO)CO)c2n1 [GCV, ganciclovir]
- effect of prodrug on tumor growth / tumor killing together with vector (GCV 25 mg/Kg daily i.p. together with daily i.p. RD-Sindbis/HSVtk from day 3): significantly improved anti-tumor efficacy; also recorded: dramatically enhanced the Sindbis HSVtk vector treatments and suppressed tumor growth; also recorded: enhanced the killing of Sindbis/tk-infected ES-2/Fluc cells in vivo
- therapeutic effect on tumor loading (GCV 25 mg/Kg daily i.p. without HSVtk expression (no Sindbis/tk)): no therapeutic effect
